Experimental data reported in patent US6150357A, “Potassium channel agonists” (Merck & Co., Inc., priority 1999, dated 2000).
Entries after “also recorded” stand apart in the source; their conditions may differ. Read-outs that look alike come from different tables or passages of the source.

Assays:
Type in all cases: cell-based
[1] = target: T1, slowly activating cardiac delayed rectifier potassium current (IKs) (Cavia porcellus, UniProt O70344); assay: Whole-cell voltage-clamp of IKs in guinea pig ventricular myocytes; conditions: for V1/2 of IKs activation (isochronal, 7.5 s pulses): control 19.2±1.6 mV
T1 construct: Guinea pig ventricular myocytes were isolated as described; endogenous in cells; host or cells: isolated guinea pig ventricular myocytes
Description: (§1) Isolation of guinea pig ventricular myocytes.
(§2) Voltage-clamp of guinea pig ventricular myocytes. […] Pipettes were made from square bore (1.0 mm, o.d.) borosilicate capillary tubing (Glass Co. of America, Bargaintown, N. J.). […] (average 5.5±0.3 M.OMEGA.). Series resistance was compensated 40-70%. Currents were low-pass filtered (-3 dB at 0.2 kHz) before digitization at 1 kHz. […] Cells were voltage clamped at a holding potential (Vh) of -50 mV to inactivate INa. Time-dependent IKs amplitude was measured as the difference from the initial instantaneous current, following the settling of the capacity transient, to the final current level at the end of a depolarizing pulse. Tail current amplitude, IKtail, was measured as the difference from the holding current level to the peak tail current amplitude upon return to Vh. IKtail was normalized to the maximum measured amplitude (IKtail-max) following 7.5 s pulses. Averaged data was fit to a Boltzmann distribution of the form: IKtail /IKtail-max =1/(1+exp[(V1/2 -Vt)/k]) with a nonlinear least squares fitting routine (Origin, Microcal Software, Northampton, Mass.) to estimate the half-point (V1/2) and slope factor (k) for this relationship. The time courses of IKs activation and deactivation were fit with a double exponential relationship of the form: It =A0 +A1 e^-t/t 1+A2 e^-t/t 2 using a Chebeshev non-iterative fitting technique (pCLAMP, Axon Instruments, Foster City, Calif.).
(§3) Solutions. Compounds were dissolved in dimethyl sulfoxide (DMSO) at a stock concentration of 1 or 10 mM and diluted directly into test solutions. Serial dilutions were used to achieve the final test concentrations. […] Nisoldipine was prepared as a 4 mM stock solution in DMSO and diluted as needed.
(§4) Statistics. Data are expressed as mean ± SEM (N=number of cells). Concentration-dependent changes in AP parameters and individual ionic currents were assessed by repeated-measures analysis of variance (ANOVA). Post-Hoc comparison of the treatment to the control means were made with Dunnett's t-test to determine significant changes between the control and test group means. Statistical comparisons for the time constants of IKs activation and deactivation were made using a paired t-test. A one-tailed probability (p)<0.05 was considered significant.

[2] = test system: guinea pig isolated ventricular myocytes; assay: Action potential studies in guinea pig isolated ventricular myocytes
Description: Isolation of guinea pig ventricular myocytes. Guinea pig ventricular myocytes were isolated as described (Salata J J, Jurkiewicz N K, Wallace A A, Stupienski R F III, Guinosso P J Jr and Lynch J J Jr. (1995). Cardiac electrophysiologic actions of the histamine H1 -receptor antagonists astemizole and terfenadine compared with chlorpheniramine and pyrilamine. Circ Res 76: 110-119.). After isolation, the cells were stored in HEPES-buffered saline (HBS) containing (mM): 132 NaCl, 4 KCl, 1.8 CaCl2, 1.2 MgCl2, 10 HEPES (formal name N-2-Hydoxyethylpiperazine-N-2-ethanesulfonic acid), 10 glucose, pH=7.2, at 24-26° C. until studied, usually within 8 hours after isolation.
Action potential studies. Transmembrane potentials were recorded using conventional microelectrodes filled with 3 M KCl (tip resistances 30-50 M.OMEGA.) using an Axoclamp 2B amplifier (Axon Instruments; Foster City, Calif.) as described (Fermini B, Jurkiewicz N K, Jow B, Guinosso P J Jr, Baskin E P, Lynch J J Jr and Salata J J. (1995). Use-dependent effects of the Class III antiarrhythmic agent NE-10064 (azimilide) on cardiac repolarization: Block of delayed rectifier potassium and L-type calcium currents. J Cardiovasc Pharmacol 26: 259-271.). Cells were superfused with HBS maintained at 37° C. at a rate of 2 ml/min. APs were evoked with brief current pulses (1 ms, 1.2 times threshold) delivered at a frequency of 1 Hz through the recording electrode using an active bridge circuit. Only cells showing normal AP configurations and resting membrane potentials equal to or more negative than -85 mV were used in this study. APs were studied after a ≥5 min control period, and after ≥5 min of superfusion with each concentration of drug. After reaching a steady state effect under each condition, 20 individual APs were sampled and digitally averaged. The amplitude at 50 ms (APA50 ms) and duration at 90% repolarization (APD90) were measured from the digitally averaged records. Concentration-response relationships were determined by measuring APs or currents in each cell under control conditions and during superfusion with successively increasing concentrations of a given drug.
(§5) Solutions. Compounds were dissolved in dimethyl sulfoxide (DMSO) at a stock concentration of 1 or 10 mM and diluted directly into test solutions. Serial dilutions were used to achieve the final test concentrations. DMSO at the concentrations used had no significant effect on any of the parameters measured in these studies. Nisoldipine was prepared as a 4 mM stock solution in DMSO and diluted as needed.
as §4

[3] = target: T2, human KvLQT1 channels (Homo sapiens, UniProt P51787); assay: Two-microelectrode voltage clamp of cloned KvLQT1 channels expressed in Xenopus oocytes; conditions: 1 μM
T2 construct: homotetramer
T2 sequence (P51787 whole entry): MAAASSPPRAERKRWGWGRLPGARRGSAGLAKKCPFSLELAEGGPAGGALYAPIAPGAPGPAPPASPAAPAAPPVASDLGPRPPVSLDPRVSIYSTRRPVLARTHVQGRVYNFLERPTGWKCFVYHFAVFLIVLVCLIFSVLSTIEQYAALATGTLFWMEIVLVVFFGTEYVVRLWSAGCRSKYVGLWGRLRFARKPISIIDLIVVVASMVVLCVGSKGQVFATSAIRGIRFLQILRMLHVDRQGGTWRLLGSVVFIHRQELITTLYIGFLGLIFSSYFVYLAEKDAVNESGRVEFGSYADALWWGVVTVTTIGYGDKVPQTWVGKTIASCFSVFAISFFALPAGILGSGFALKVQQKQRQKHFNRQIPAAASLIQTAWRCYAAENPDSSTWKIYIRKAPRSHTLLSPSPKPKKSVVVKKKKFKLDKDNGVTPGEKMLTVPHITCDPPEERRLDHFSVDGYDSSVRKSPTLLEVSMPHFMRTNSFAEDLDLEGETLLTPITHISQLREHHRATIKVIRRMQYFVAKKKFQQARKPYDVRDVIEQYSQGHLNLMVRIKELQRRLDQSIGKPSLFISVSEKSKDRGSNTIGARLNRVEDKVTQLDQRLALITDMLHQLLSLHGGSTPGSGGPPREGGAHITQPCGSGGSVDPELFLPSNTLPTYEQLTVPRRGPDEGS
Description: cRNA injection and voltage-clamp of oocytes. The isolation and maintenance of Xenopus oocytes, in vitro transcription of KvLQT1 complementary RNA (cRNA) and its injection into oocytes were performed as described previously (Sanguinetti M C, Curran M E, Zou A, Shen J, Spector P S, Atkinson D L and Keating M T. (1996b). Coassembly of KvLQT1 and minK (IsK) proteins form cardiac IKs potassium channel. Nature 384: 80-83.; Sanguinetti M C, Jiang C, Curran M E and Keating M T. (1995). A mechanistic link between an inherited and an acquired cardiac arrhythmia: HERG encodes the IKr potassium channel. Cell 81: 299-307.). Stage V and VI oocytes were injected with 11.5 ng of KvLQT1 cRNA (46 nL of a 250 ng/μL solution) Currents were recorded 2 to 4 days later using standard two-microelectrode voltage clamp techniques and a Dagan TEV-200 amplifier. Oocytes were bathed at room temperature (22-25° C.) in a solution containing (mM): 94 NaCl, 2 KCl, 2 MgCl2, 0.1 CaCl2, 5 HEPES; pH 7.6.
as §5

[4] = test system: slowly activating cardiac delayed rectifier potassium current (IKs); assay: Whole-cell voltage-clamp of IKs in guinea pig ventricular myocytes; conditions: 10 nM Iso alone; 0.5 s pulses
Description: as §1, §2, §3, §4

[5] = 10 μM, read-out: Agonist Effect - % Increase in IKs, Vt +50 mV
[6] = 10 μM, read-out: Agonist Effect - % Increase in IKs, Vt -10 mV
[7] = 1 μM, read-out: Agonist Effect - % Increase in IKs, Vt +50 mV

O=C1Nc2ccc(Cl)cc2C(c2ccccc2)=N[C@@H]1Cc1c[nH]c2ccccc12 [R-L5, (3-R)-7-chloro-1,3-dihydro-5-phenyl-3-(1H-indol-3-ylmethyl)-2H-1,4-benzodiazepin-2-one] gave an activation at 10 µM [1, 5] of 22 ± 6% and an activation at 10 µM [1, 6] of 22 ± 10%.
With CN1C(=O)[C@@H](Cc2c[nH]c3ccccc23)N=C(c2ccccc2F)c2ccccc21 [R-L3, (3-R)-1,3-dihydro-5-(2-fluorophenyl)-3-(1H-indol-3-ylmethyl)-1-methyl-2H-1,4-benzodiazepin-2-one] the “decrease in APD90” value ([2]; 1 μM R-L3 in the continued presence of 100 nM timolol) was 14.6±2.2%, the “decrease in APD90” value ([2]; 1 μM R-L3 in the presence of 30 nM Iso) was 26.9±1.4% and the “decrease in APD90” value ([2]; 1 μM, stimulation at 1 Hz) was 14.2±1.6%. The “decrease in APD90” value ([2]; 10 μM, stimulation at 1 Hz) was 13.8±4.0%, the “effect on APD” value ([2]; 0.1-1.0 μM, 1 Hz) was “concentration-dependent shortening of APD” and the “concentration at which shortening of APD was maximal” value ([2]; 1 Hz) was 1 µM. The fold induction at 0.03 µM ([1]; 30 nM, 3 s depolarizations to Vt -10 mV from Vh -50 mV, read-out: IKs increased by a factor) was 17 ± 5, the “V1/2 of IKs activation (isochronal, 7.5 s pulses)” value ([1]; 0.1 μM) was 3.0±0.8 mV and the activation at 0.1 µM ([1]; 0.1 μM, read-out: Agonist Effect - % Increase in IKs, Vt +50 mV) was 25 ± 6%. The activation at 0.1 µM ([1]; 0.1 μM, read-out: Agonist Effect - % Increase in IKs, Vt -10 mV) was 431 ± 123%, the “fast time constants of IKs activation” value ([1]; 1 μM) was “slightly, but not significantly, faster” and the “maximally activated IKs” value ([1]; 1 μM, Vt +60 mV, control 896±196 pA, not significantly increased) was 953±183 pA. For the same compound, the “V1/2 of IKs activation (isochronal, 7.5 s pulses)” value ([1]; 1 μM) was -4.9±3.4 mV, the “shift of V1/2 of IKs activation” value ([1]; 1 μM, following pretreatment with 100 nM timolol) was -19 mV and the activation at 1 µM [1, 7] was 40 ± 12%. The “effect on time-dependent IKs at the end of 7.5 s pulses” value ([1]; 10 μM, Vh -50 mV) was “increased time-dependent IKs at the end of 7.5 s pulses to potentials <+10 mV, but decreased IKs at more positive potentials”, the “effect on slope factor k of IKs activation” value ([1]; 0.1 and 1 μM, control k 11.0±1.2 mV) was “not significantly changed; also recorded: had no effect on k” and the “fast and slow time constants of IKs deactivation” value ([1]; -60 to -10 mV following 3 s pre-pulse to +30 mV) was “significantly increased”. The “lowest concentration enhancing IKs” value ([1]; Vt -10 mV) was 30 nM, the “concentration of maximal effect on IKs” value ([1]; Vt -10 mV, 3 s pulses) was 1 µM and the “net effect on rate of KvLQT1 activation” value [3] was “slow the rate of KvLQT1 activation”. For the same compound, the “shift in the voltage dependence of KvLQT1 activation” value [3] was -10 mV, the “effect on KvLQT1 current” value ([3]; 2 s pulses to -70 to +60 mV) was “increased KvLQT1” and the “slope factor (k) of KvLQT1 activation” value ([3]; control 11 mV) was 13 mV. For the same compound, the “V1/2 of KvLQT1 activation” value ([3]; control -28 mV) was -40 mV and the “effect on rate of KvLQT1 deactivation” value ([3]; voltages negative to -40 mV) was “slowed the rate of KvLQT1 deactivation”.
For O=C1CC2(CCN(C(=O)Nc3ccccc3)CC2)Oc2ccccc21 [L7, N-phenyl-1'-(carboxamido)-spiro[2H-1-benzopyran-2,4'-piperidin]-4(3H)-one], the “Agonist Effect - % Increase in IKs, Vt -10 mV” value ([1]; 1 μM) was “no change” and the activation at 1 µM [1, 7] was 111 ± 28%.
For CC(C)NCC(O)c1ccc(O)c(O)c1 (stereo not drawn) [Iso, isoproterenol, reference compound], the “decrease in APD90” value ([2]; 30 nM Iso alone) was 12.9±2.9%, the activation at 0.03 µM ([2]; Cavia porcellus, Ventricular myocyte, 30 nM Iso alone, read-out: increase in APA50ms) was 6.6 ± 2.9% and the “increase in IKs” value [4] was 1.75 fold.
Cc1cccc(N2C(=O)NC3(N=C(c4ccccc4)c4ccccc4N(C)C3=O)C2=O)c1 (stereo not drawn) [L6, 1-methyl-5-phenyl-1'-(3-tolyl)-spiro[3H-1,4-benzodiazepine-3,4'-imidazolidine]-2(1H),2',5'-trione] showed an activation at 10 µM [1, 5] of 31 ± 9%.
With CC(C)(C)NC[C@H](O)COc1nsnc1N1CCOCC1 [timolol, reference compound] the “effect on AP configuration” value ([2]; 100 nM timolol) was “did not alter AP configuration” and the “effect on the effects of 30 nM Iso on the action potential” value ([2]; 100 nM timolol) was “prevented the effects of 30 nM Iso”.
For Cc1cccc(NC(=O)N2CCC3(CC2)CC(=O)c2ccccc2O3)c1 [L8, N-(3-tolyl)-1'-(carboxamido)-spiro[2H-1-benzopyran-2,4'-piperidin]-4(3H)-one], the “Agonist Effect - % Increase in IKs, Vt -10 mV” value ([1]; 10 μM) was “no change” and the activation at 10 µM [1, 5] was 65 ± 17%.
Compound O=C1Nc2ccccc2C(c2ccccc2F)=N[C@@H]1Cc1c[nH]c2ccccc12 [R-L4, (3-R)-1,3-dihydro-5-(2-fluorophenyl)-3-(1H-indol-3-ylmethyl)-2H-1,4-benzodiazepin-2-one] has an activation at 1 µM [1, 7] of 44 ± 9%, an activation at 1 µM ([1]; 1 μM, read-out: Agonist Effect - % Increase in IKs, Vt -10 mV) of 27 ± 7% and an activation at 10 µM [1, 5] of 114 ± 13%. It also gave an activation at 10 µM [1, 6] of 153 ± 37%.
In the case of CN1C(=O)[C@H](Cc2c[nH]c3ccccc23)N=C(c2ccccc2F)c2ccccc21 [S-L3], the inhibition at 1 µM ([1]; 1 μM, end of a 1-s test pulse to +50 mV, read-out: block of IKs) is reported as 14.8 ± 4.3%, the inhibition at 10 µM ([1]; 10 μM, end of a 1-s test pulse to +50 mV, read-out: block of IKs) is reported as 68.8 ± 3.4% and the “effect on IKs” value ([1]; 1 to 10 μM, test potentials -10 to +50 mV) is reported as “blocked IKs at all concentrations”.
